Data as given in ChEMBL document CHEMBL6121060, “Discovery and Development of CFTR Modulators for the Treatment of Cystic Fibrosis” (J Med Chem, 2025).
Converted amounts (≈) assume the structure as drawn.

Experiments:
[1] = biological target: T1, Cystic fibrosis transmembrane conductance regulator (Homo sapiens, UniProt P13569, F508DEL); assay: Activation of CFTR F508del mutant (unknown origin)
[2] = Solubility of compound at pH 6.8 incubated for 12 hrs by HPLC analysis; format: physicochemical; settings: buffer
[3] = Metabolic stability in rat liver microsomes assessed as intrinsic clearance; format: ADME, Microsome
[4] = biological target: T1, Cystic fibrosis transmembrane conductance regulator; assay: Potentiation of CFTR F508del mutant (unknown origin)
[5] = AUC in rat at 3 mg/kg, po; settings: in vivo
[6] = biological target: T2, Nuclear receptor subfamily 1 group I member 2 (Homo sapiens, UniProt O75469); assay: Activation of PXR (unknown origin) at 10 uM relative to rifampicin
T2 sequence (O75469 whole entry): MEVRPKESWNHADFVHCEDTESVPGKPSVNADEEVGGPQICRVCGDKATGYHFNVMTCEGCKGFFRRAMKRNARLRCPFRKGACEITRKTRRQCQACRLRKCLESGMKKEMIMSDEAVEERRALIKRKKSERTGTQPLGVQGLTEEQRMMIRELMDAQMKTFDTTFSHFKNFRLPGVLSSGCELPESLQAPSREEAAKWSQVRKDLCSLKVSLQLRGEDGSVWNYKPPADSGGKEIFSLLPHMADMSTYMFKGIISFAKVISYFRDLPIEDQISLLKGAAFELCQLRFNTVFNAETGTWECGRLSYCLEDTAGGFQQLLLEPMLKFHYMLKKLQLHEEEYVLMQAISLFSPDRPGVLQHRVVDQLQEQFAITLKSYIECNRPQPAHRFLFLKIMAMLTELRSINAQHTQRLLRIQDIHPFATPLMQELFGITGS

[7] = biological target: T1, Cystic fibrosis transmembrane conductance regulator; assay: Potentiation of CFTR F508del mutant (unknown origin) expressed in NIH3T3 cells; format: cell-based
[8] = biological target: T3, PXR (nuclear receptor subfamily 1 group I member 2) (Homo sapiens, UniProt O75469); assay: Activation of PXR (unknown origin) at 10 uM relative to control; settings: read-out: Activity
T3 sequence (O75469 whole entry): T2 sequence (O75469 whole entry)

[9] = Apparent permeability across apical to basolateral side in MDCK cells; format: ADME, cell-based, Canis lupus familiaris; settings: dog
[10] = Oral bioavailability in rat; format: ADME, organism-based; settings: in vivo

T1 sequence (P13569 as listed by the source): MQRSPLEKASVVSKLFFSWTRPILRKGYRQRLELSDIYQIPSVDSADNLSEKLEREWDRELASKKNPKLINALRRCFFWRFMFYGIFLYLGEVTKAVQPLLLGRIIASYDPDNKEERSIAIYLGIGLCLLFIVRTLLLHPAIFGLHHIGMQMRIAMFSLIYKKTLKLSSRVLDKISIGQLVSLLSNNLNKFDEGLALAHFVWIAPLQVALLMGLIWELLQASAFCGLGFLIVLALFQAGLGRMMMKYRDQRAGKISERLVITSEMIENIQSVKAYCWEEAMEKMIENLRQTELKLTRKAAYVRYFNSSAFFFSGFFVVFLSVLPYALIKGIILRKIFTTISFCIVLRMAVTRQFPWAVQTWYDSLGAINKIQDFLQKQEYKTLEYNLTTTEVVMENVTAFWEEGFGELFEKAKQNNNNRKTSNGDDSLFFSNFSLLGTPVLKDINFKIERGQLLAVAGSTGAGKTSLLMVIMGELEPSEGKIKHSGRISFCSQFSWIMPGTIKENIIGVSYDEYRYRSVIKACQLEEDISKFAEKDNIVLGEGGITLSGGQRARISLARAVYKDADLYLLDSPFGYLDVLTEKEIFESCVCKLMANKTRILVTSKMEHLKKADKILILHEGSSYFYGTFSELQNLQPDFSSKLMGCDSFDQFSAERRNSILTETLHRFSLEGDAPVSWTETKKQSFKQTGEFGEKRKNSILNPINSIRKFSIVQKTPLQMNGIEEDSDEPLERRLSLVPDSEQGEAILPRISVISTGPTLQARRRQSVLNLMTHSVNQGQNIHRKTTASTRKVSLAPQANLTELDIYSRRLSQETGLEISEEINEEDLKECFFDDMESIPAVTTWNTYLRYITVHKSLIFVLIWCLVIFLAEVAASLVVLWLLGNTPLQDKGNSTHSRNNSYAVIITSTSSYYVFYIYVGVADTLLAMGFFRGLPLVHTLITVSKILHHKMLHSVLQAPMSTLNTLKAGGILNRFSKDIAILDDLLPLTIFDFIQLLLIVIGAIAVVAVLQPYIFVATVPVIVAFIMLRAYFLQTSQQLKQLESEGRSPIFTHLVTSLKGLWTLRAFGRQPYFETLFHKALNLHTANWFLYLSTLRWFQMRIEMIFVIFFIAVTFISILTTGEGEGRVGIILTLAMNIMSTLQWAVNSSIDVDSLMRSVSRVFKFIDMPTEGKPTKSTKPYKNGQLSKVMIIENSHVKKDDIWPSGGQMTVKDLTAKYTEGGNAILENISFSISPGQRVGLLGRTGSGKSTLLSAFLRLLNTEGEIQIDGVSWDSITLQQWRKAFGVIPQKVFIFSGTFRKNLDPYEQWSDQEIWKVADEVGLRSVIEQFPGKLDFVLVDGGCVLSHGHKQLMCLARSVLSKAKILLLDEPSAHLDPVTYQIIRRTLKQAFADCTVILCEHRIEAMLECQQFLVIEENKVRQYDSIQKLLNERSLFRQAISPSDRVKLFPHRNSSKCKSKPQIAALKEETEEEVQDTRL

Structure (SMILES) | EC50 [1] [µM] | also measured
CC1(C)Cc2c(sc(NC(=O)c3ccccc3O)c2C(N)=O)C(C)(C)O1 | 0.015 | –
CC1(C)Cc2c(sc(NC(=O)[C@H](O)C(C)(C)C)c2C(N)=O)C(C)(C)O1 | 0.003 | –
CC1(C)Cc2c(sc(NC(=O)C3(CO)CC3)c2C(N)=O)C(C)(C)O1 | 0.0027 | –
CC1(C)Cc2c(sc(NC(=O)[C@@H](O)C(C)(C)C)c2C(N)=O)C(C)(C)O1 | 0.127 | –
COC(=O)c1nc(-c2ccco2)c(C(F)(F)F)cc1N | – | solubility at 12 h [2]: 2 µg/mL (≈ 6.99 µM); CLint [3]: 351 µL/min/mg; EC50 [4]: 0.07 µM
CNC(=O)c1nc(Br)c(C(F)(F)F)cc1N | – | CLint [3]: 100 µL/min/mg
Nc1cc(C(F)(F)F)c(Br)nc1C(=O)NCCC(F)(F)F | – | solubility at 12 h [2]: 170 µg/mL (≈ 447 µM); CLint [3]: 55.8 µL/min/mg
C[C@@H]1CN(c2nc(-n3ccc(OCC4(C(F)(F)F)CCC4)n3)ccc2C(=O)NS(=O)(=O)c2ccccc2)C(C)(C)C1 | 0.04 | AUC [5]: 2200 ng·h/mL
C[C@@H]1CN(c2nc(-n3ccc(OCC4(C(F)(F)F)CC4)n3)ccc2C(=O)NS(=O)(=O)c2ccccc2)C(C)(C)C1 | 0.04 | Activity [6]: 19%; AUC [5]: 14700 ng·h/mL
C[C@@H]1CN(c2nc(-n3ccc(OCCC4(C(F)(F)F)CC4)n3)ccc2C(=O)NS(=O)(=O)c2cccc(F)c2)C(C)(C)C1 | 0.05 | AUC [5]: 2700 ng·h/mL
C[C@@H]1CN(c2nc(-n3ccc(OCC(C)(C)C)n3)ccc2C(=O)NS(=O)(=O)c2cccnc2N)C(C)(C)C1 | 0.06 | Activity [6]: 2%; AUC [5]: 1200 ng·h/mL
C[C@@H]1CN(c2nc(-n3ccc(OCC(O)C4(C(F)(F)F)CC4)n3)ccc2C(=O)NS(=O)(=O)c2ccccc2)C(C)(C)C1 (stereo partly drawn) | 0.24 | –
CCOc1cccc([C@H]2C[C@@]2(C(=O)NS(=O)(=O)c2cccc3nc(C)ccc23)c2cc(C)ccc2OC)n1 | 0.005 | –
CC(O)(c1nnc(-c2ncc(S(=O)(=O)c3ccc(OC(F)(F)F)cc3)cc2N)o1)C(F)(F)F (stereo not drawn) | 0.0018 | –
Cc1nn(C)c(C)c1S(=O)(=O)NC(=O)c1ccc(-n2ccc(OCC(C)(C)C(F)(F)F)n2)nc1N1C[C@@H](C)CC1(C)C | – | EC50 [7]: 0.09 µM; activity at 10 µM [8]: 1%; Papp A→B [9]: 8.8 ×10⁻⁶ cm/s
CCOc1cccc([C@@H]2C[C@]2(C(=O)NS(=O)(=O)c2cccc3nc(C)ccc23)c2cc(C)ccc2OC)n1 | 0.09 | –
CCc1ccccc1-c1nc(NS(=O)(=O)c2cccc(N(CCCC(=O)O)C(C)C)n2)ccc1C(F)(F)F | 0.002 | –
CCOc1ccc(CC)cc1[C@@]1(C(=O)NS(=O)(=O)c2cccc3nc(C)ccc23)CCCO1 | 0.03 | –
COc1ccc(C)cc1[C@]1(C(=O)NS(=O)(=O)c2cccc3nc(C)ccc23)C[C@@H](c2ccccc2)CO1 | 0.03 | –
COc1ccc(Br)c2c1CCCC2C(=O)NS(=O)(=O)c1cccc2ncccc12 (stereo not drawn) | < 3 | –
Cc1ccc(C2CCCCC2)c(OC2(C(=O)NS(=O)(=O)c3cccc(N4CCC(N)(C(F)(F)F)CC4)n3)CC2)c1 | 0.004 | –
Cc1ccc(C2CCCCC2)c(OC2(C(=O)NS(=O)(=O)c3cccc(N4CCOC[C@@H]4C)n3)CC2)c1 | 0.08 | –
Cc1nn(C)cc1S(=O)(=O)NC(=O)c1ccc(-n2ccc(OCC3(C(F)(F)F)CC3)n2)nc1N1C[C@@H](C)CC1(C)C | – | EC50 [7]: 0.22 µM; activity at 10 µM [8]: 4%; Papp A→B [9]: 7.1 ×10⁻⁶ cm/s
COc1ccc(C2CCC2)cc1C1(C(=O)NS(=O)(=O)c2cccc3ccccc23)CC1 | < 3 | –
COc1ccc(Br)c2c1C(C(=O)NS(=O)(=O)c1cccc3ccccc13)CC2 (stereo not drawn) | < 3 | –
COc1ccc(Br)c2c1CCCC2C(=O)NS(=O)(=O)c1cccc2ccccc12 (stereo not drawn) | < 3 | –
CCc1ccccc1-c1nc(NS(=O)(=O)c2cccc(N(CC)CCCC(=O)O)n2)ccc1C(F)(F)F | 0.004 | –

Structure (SMILES) | EC50 [1] [µM] | also measured
Cc1ccc(-c2cccc(C(F)(F)F)c2)c(OC2(C(=O)NS(=O)(=O)c3cccc(N4CCC(N)(C(F)(F)F)CC4)n3)CC2)c1 | 0.08 | –
Cc1ccc(F)cc1-c1nc(NS(=O)(=O)c2cccc(N3CCC[C@@](C)(CC(=O)O)C3)n2)ccc1C(F)(F)F | 0.002 | –
COc1ccc(C2CCC2)c2c1C(C(=O)NS(=O)(=O)c1cccc3ccccc13)C2 (stereo not drawn) | < 3 | –
CC(C)(CN1CCCCCc2ccccc2-c2nc(ccc2C(F)(F)F)NS(=O)(=O)c2cccc1n2)C(=O)O | 0.004 | –
Nc1cc(S(=O)(=O)c2ccc(C(F)(F)F)cc2)cnc1-c1nnc(CO)o1 | 0.0016 | –
Nc1cc(S(=O)(=O)c2ccc(OC(F)(F)F)cc2)cnc1-c1nnc([C@@H](O)c2ccccc2)o1 | 0.0011 | –
CC(C)(CO)CN1CCCCCc2ccccc2-c2nc(ccc2C(F)(F)F)NS(=O)(=O)c2cccc1n2 | 0.003 | –
CNC(=O)c1nc(-c2ccco2)c(C(F)(F)F)cc1N | – | solubility at 12 h [2]: 40 µg/mL (≈ 140 µM); CLint [3]: 205 µL/min/mg; EC50 [4]: 1.86 µM
COC(=O)c1nc(I)c(C(F)(F)F)cc1N | – | solubility at 12 h [2]: 13 µg/mL (≈ 37.6 µM); CLint [3]: 342 µL/min/mg; EC50 [4]: 0.36 µM
Cc1nn(-c2ccc(F)cc2)c2nc(C(=O)NS(C)(=O)=O)cc(-c3ccc(N4CCOCC4)cc3)c12 | 1.26 | –
Cc1nn(C)cc1S(=O)(=O)NC(=O)c1ccc(-n2ccc(OCC3(C(F)(F)F)CCC3)n2)nc1N1C[C@@H](C)CC1(C)C | – | bioavailability [10]: 66%; EC50 [7]: 0.13 µM; activity at 10 µM [8]: 3%; Papp A→B [9]: 2.7 ×10⁻⁶ cm/s
Cc1nn(C)cc1S(=O)(=O)NC(=O)c1ccc(-n2ccc(OCCC3(C(F)(F)F)CC3)n2)nc1N1C[C@@H](C)CC1(C)C | – | bioavailability [10]: 65%; EC50 [7]: 0.13 µM; activity at 10 µM [8]: 4%; Papp A→B [9]: 11.7 ×10⁻⁶ cm/s
CC(C)(CO)CN1CCCCCCc2ccccc2-c2nc(ccc2C(F)(F)F)NS(=O)(=O)c2cccc1n2 | 0.01 | –
Cc1ccccc1-c1nc(NS(=O)(=O)c2cccc(N3CCC[C@H](CC(=O)O)C3)n2)ccc1C(F)(F)F | 0.1 | –
CC(C)(CN1CCCCCCc2ccccc2-c2nc(ccc2C(F)(F)F)NS(=O)(=O)c2cccc1n2)C(=O)O | 0.08 | –
Cc1ccc(C2CCCCCC2)c(OC2(C(=O)NS(=O)(=O)c3cccc(N)n3)CC2)c1 | 0.002 | –
Nc1cc(S(=O)(=O)c2ccc(OC(F)(F)F)cc2)cnc1-c1nnc(C(O)C(F)(F)F)o1 (stereo not drawn) | 0.0058 | –
Cc1c(S(=O)(=O)NC(=O)c2ccc(-n3ccc(OCC(C)(C)C(F)(F)F)n3)nc2N2C[C@@H](C)CC2(C)C)cnn1C | – | EC50 [7]: 0.17 µM; activity at 10 µM [8]: 3%; Papp A→B [9]: 3.8 ×10⁻⁶ cm/s
CCOc1ccc(CC)cc1[C@]1(C(=O)NS(=O)(=O)c2cccc3nc(C)ccc23)CCCO1 | > 0.3 | –
COc1ccc(C)cc1[C@]1(C(=O)NS(=O)(=O)c2cccc3nc(C)ccc23)C[C@@H]1c1cnc(C(C)C)cn1 | 0.03 | –
COc1ncc(C2CCC2)cc1C1(C(=O)NS(=O)(=O)c2cccc3c2CCCN3)CC1 | < 3 | –
COc1ccc(C)cc1[C@]1(C(=O)NS(=O)(=O)c2cccc3nc(C)ccc23)C[C@@H]1c1cccc(C(F)(F)F)c1 (racemic) | 0.005 | –
C[C@@H]1CN(c2nc(-n3ccc(OCCC4(C(F)(F)F)CC4)n3)ccc2C(=O)NS(=O)(=O)c2ccccc2)C(C)(C)C1 [BAMOCAFTOR] | 0.03 | Activity [6]: 3%; AUC [5]: 21000 ng·h/mL
Cc1nn(C)cc1S(=O)(=O)NC(=O)c1ccc(-n2ccc(OCC(C)(C)C(F)(F)F)n2)nc1N1C[C@@H](C)CC1(C)C [ELEXACAFTOR] | – | bioavailability [10]: 83%; EC50 [7]: 0.07 µM; activity at 10 µM [8]: 2%; Papp A→B [9]: 4.5 ×10⁻⁶ cm/s
Nc1cc(S(=O)(=O)c2ccc(OC(F)(F)F)cc2)cnc1-c1nnc(CO)o1 [NAVOCAFTOR] | 0.0056 | –
COc1ccc(C)cc1[C@@]1(C(=O)NS(=O)(=O)c2cccc3nc(C)ccc23)C[C@H](c2ccccc2)CO1 [RISELCAFTOR] | 0.01 | –
